# In US20110071108A1, “Beta-Cyclodextrin Derivatives as Antibacterial Agents” (Pinnacle Pharmaceuticals, Inc., priority 2005, published 2011):
# Read-outs that look alike come from different tables or passages of the source.
# Tests used:
# Enterococcus faecium = test: Bacterial panel testing, MIC by broth microdilution; type: cell-based; details: 20-24 hours growth
# Outline: (§1)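 Strains grown 2-4 h, 37° C, MH or BHI broth per strain; McFarland-standardized, diluted in media. Cpd 10 μg/ml in DMSO, 2-fold serial dilution cols 2-12. Rifampicin included. 20-24 h growth; clear wells scored.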
# Salmonella choleraesuis = test: as above; type: cell-based; details: 20-24 hours growth
# Outline: as §1
# Eschericia coli = test: as above; type: cell-based; details: 20-24 hours growth
# Outline: as §1
# Pseudomonas aeruginosa = test: as above; type: cell-based; details: 20-24 hours growth
# Outline: as §1
# Staphylococcus aureus = test: as above; type: cell-based; details: 20-24 hours growth
# Outline: as §1
# Lungs cancer cells A549 [1] = system: Lungs cancer cells A549
# Lungs cancer cells A549 [2] = test: Mammalian cytotoxicity
# Bacillus atrophaeus = test: Bacterial panel testing, MIC by broth microdilution; type: cell-based; details: 20-24 hours growth
# Outline: as §1
SMILES,MIC EF (Enterococcus faecium),MIC SC (Salmonella choleraesuis),MIC EC (Eschericia coli),MIC PA (Pseudomonas aeruginosa),MIC SA (Staphylococcus aureus),Mammalian Cytotoxicity IC50 (Lungs cancer cells A549 [1]),Mammalian Cytotoxicity IC50 (Lungs cancer cells A549 [2]),MIC BA (Bacillus atrophaeus)
Cl.Cl.Cl.Cl.Cl.Cl.Cl.NCCSC[C@H]1O[C@@H]2O[C@H]3[C@H](O)[C@@H](O)[C@@H](O[C@H]4[C@H](O)[C@@H](O)[C@@H](O[C@H]5[C@H](O)[C@@H](O)[C@@H](O[C@H]6[C@H](O)[C@@H](O)[C@@H](O[C@H]7[C@H](O)[C@@H](O)[C@@H](O[C@H]8[C@H](O)[C@@H](O)[C@@H](O[C@H]1[C@H](O)[C@H]2O)O[C@@H]8CSCCN)O[C@@H]7CSCCN)O[C@@H]6CSCCN)O[C@@H]5CSCCN)O[C@@H]4CSCCN)O[C@@H]3CSCCN,>200 µg/mL,>200 µg/mL,>200 µg/mL,>200 µg/mL,>200 µg/mL,829 µg/mL,–,–
Cl.Cl.Cl.Cl.Cl.Cl.Cl.NCCCSC[C@H]1O[C@@H]2O[C@H]3[C@H](O)[C@@H](O)[C@@H](O[C@H]4[C@H](O)[C@@H](O)[C@@H](O[C@H]5[C@H](O)[C@@H](O)[C@@H](O[C@H]6[C@H](O)[C@@H](O)[C@@H](O[C@H]7[C@H](O)[C@@H](O)[C@@H](O[C@H]8[C@H](O)[C@@H](O)[C@@H](O[C@H]1[C@H](O)[C@H]2O)O[C@@H]8CSCCCN)O[C@@H]7CSCCCN)O[C@@H]6CSCCCN)O[C@@H]5CSCCCN)O[C@@H]4CSCCCN)O[C@@H]3CSCCCN,>200 µg/mL,>200 µg/mL,–,>200 µg/mL,>200 µg/mL,191 µg/mL,–,–
Cl.Cl.Cl.Cl.Cl.Cl.Cl.NCCCCSC[C@H]1O[C@@H]2O[C@H]3[C@H](O)[C@@H](O)[C@@H](O[C@H]4[C@H](O)[C@@H](O)[C@@H](O[C@H]5[C@H](O)[C@@H](O)[C@@H](O[C@H]6[C@H](O)[C@@H](O)[C@@H](O[C@H]7[C@H](O)[C@@H](O)[C@@H](O[C@H]8[C@H](O)[C@@H](O)[C@@H](O[C@H]1[C@H](O)[C@H]2O)O[C@@H]8CSCCCCN)O[C@@H]7CSCCCCN)O[C@@H]6CSCCCCN)O[C@@H]5CSCCCCN)O[C@@H]4CSCCCCN)O[C@@H]3CSCCCCN,>200 µg/mL,>200 µg/mL,>200 µg/mL,>200 µg/mL,>200 µg/mL,198 µg/mL,–,–
CC(C)C[C@H](N)C(=O)NC[C@H]1O[C@@H]2O[C@H]3[C@H](O)[C@@H](O)[C@@H](O[C@H]4[C@H](O)[C@@H](O)[C@@H](O[C@H]5[C@H](O)[C@@H](O)[C@@H](O[C@H]6[C@H](O)[C@@H](O)[C@@H](O[C@H]7[C@H](O)[C@@H](O)[C@@H](O[C@H]8[C@H](O)[C@@H](O)[C@@H](O[C@H]1[C@H](O)[C@H]2O)O[C@@H]8CNC(=O)[C@@H](N)CC(C)C)O[C@@H]7CNC(=O)[C@@H](N)CC(C)C)O[C@@H]6CNC(=O)[C@@H](N)CC(C)C)O[C@@H]5CNC(=O)[C@@H](N)CC(C)C)O[C@@H]4CNC(=O)[C@@H](N)CC(C)C)O[C@@H]3CNC(=O)[C@@H](N)CC(C)C,>200 µg/mL,>200 µg/mL,>200 µg/mL,>200 µg/mL,>200 µg/mL,–,215 µg/mL,–
N[C@@H](Cc1ccccc1)C(=O)NC[C@H]1O[C@@H]2O[C@H]3[C@H](O)[C@@H](O)[C@@H](O[C@H]4[C@H](O)[C@@H](O)[C@@H](O[C@H]5[C@H](O)[C@@H](O)[C@@H](O[C@H]6[C@H](O)[C@@H](O)[C@@H](O[C@H]7[C@H](O)[C@@H](O)[C@@H](O[C@H]8[C@H](O)[C@@H](O)[C@@H](O[C@H]1[C@H](O)[C@H]2O)O[C@@H]8CNC(=O)[C@@H](N)Cc1ccccc1)O[C@@H]7CNC(=O)[C@@H](N)Cc1ccccc1)O[C@@H]6CNC(=O)[C@@H](N)Cc1ccccc1)O[C@@H]5CNC(=O)[C@@H](N)Cc1ccccc1)O[C@@H]4CNC(=O)[C@@H](N)Cc1ccccc1)O[C@@H]3CNC(=O)[C@@H](N)Cc1ccccc1,>200 µg/mL,>200 µg/mL,>200 µg/mL,>200 µg/mL,>200 µg/mL,–,>2000 µg/mL,–
N=C(N)NCCSC[C@H]1O[C@@H]2O[C@H]3[C@H](O)[C@@H](O)[C@@H](O[C@H]4[C@H](O)[C@@H](O)[C@@H](O[C@H]5[C@H](O)[C@@H](O)[C@@H](O[C@H]6[C@H](O)[C@@H](O)[C@@H](O[C@H]7[C@H](O)[C@@H](O)[C@@H](O[C@H]8[C@H](O)[C@@H](O)[C@@H](O[C@H]1[C@H](O)[C@H]2O)O[C@@H]8CSCCNC(=N)N)O[C@@H]7CSCCNC(=N)N)O[C@@H]6CSCCNC(=N)N)O[C@@H]5CSCCNC(=N)N)O[C@@H]4CSCCNC(=N)N)O[C@@H]3CSCCNC(=N)N,>200 µg/mL,>200 µg/mL,>200 µg/mL,>200 µg/mL,>200 µg/mL,–,510 µg/mL,–
NCCCCC(=O)NC[C@H]1O[C@@H]2O[C@H]3[C@H](O)[C@@H](O)[C@@H](O[C@H]4[C@H](O)[C@@H](O)[C@@H](O[C@H]5[C@H](O)[C@@H](O)[C@@H](O[C@H]6[C@H](O)[C@@H](O)[C@@H](O[C@H]7[C@H](O)[C@@H](O)[C@@H](O[C@H]8[C@H](O)[C@@H](O)[C@@H](O[C@H]1[C@H](O)[C@H]2O)O[C@@H]8CNC(=O)CCCCN)O[C@@H]7CNC(=O)CCCCN)O[C@@H]6CNC(=O)CCCCN)O[C@@H]5CNC(=O)CCCCN)O[C@@H]4CNC(=O)CCCCN)O[C@@H]3CNC(=O)CCCCN,>200 µg/mL,>200 µg/mL,>200 µg/mL,>200 µg/mL,>200 µg/mL,–,755 µg/mL,–
CC(C)(C)OC(=O)N[C@@H](Cc1ccccc1)C(=O)NC[C@H]1O[C@@H]2O[C@H]3[C@H](O)[C@@H](O)[C@@H](O[C@H]4[C@H](O)[C@@H](O)[C@@H](O[C@H]5[C@H](O)[C@@H](O)[C@@H](O[C@H]6[C@H](O)[C@@H](O)[C@@H](O[C@H]7[C@H](O)[C@@H](O)[C@@H](O[C@H]8[C@H](O)[C@@H](O)[C@@H](O[C@H]1[C@H](O)[C@H]2O)O[C@@H]8CNC(=O)[C@H](Cc1ccccc1)NC(=O)OC(C)(C)C)O[C@@H]7CNC(=O)[C@H](Cc1ccccc1)NC(=O)OC(C)(C)C)O[C@@H]6CNC(=O)[C@H](Cc1ccccc1)NC(=O)OC(C)(C)C)O[C@@H]5CNC(=O)[C@H](Cc1ccccc1)NC(=O)OC(C)(C)C)O[C@@H]4CNC(=O)[C@H](Cc1ccccc1)NC(=O)OC(C)(C)C)O[C@@H]3CNC(=O)[C@H](Cc1ccccc1)NC(=O)OC(C)(C)C,>200 µg/mL,>200 µg/mL,>200 µg/mL,>200 µg/mL,>200 µg/mL,–,193 µg/mL,>200 µg/mL
CC(C)C[C@H](NC(=O)OC(C)(C)C)C(=O)NC[C@H]1O[C@@H]2O[C@H]3[C@H](O)[C@@H](O)[C@@H](O[C@H]4[C@H](O)[C@@H](O)[C@@H](O[C@H]5[C@H](O)[C@@H](O)[C@@H](O[C@H]6[C@H](O)[C@@H](O)[C@@H](O[C@H]7[C@H](O)[C@@H](O)[C@@H](O[C@H]8[C@H](O)[C@@H](O)[C@@H](O[C@H]1[C@H](O)[C@H]2O)O[C@@H]8CNC(=O)[C@H](CC(C)C)NC(=O)OC(C)(C)C)O[C@@H]7CNC(=O)[C@H](CC(C)C)NC(=O)OC(C)(C)C)O[C@@H]6CNC(=O)[C@H](CC(C)C)NC(=O)OC(C)(C)C)O[C@@H]5CNC(=O)[C@H](CC(C)C)NC(=O)OC(C)(C)C)O[C@@H]4CNC(=O)[C@H](CC(C)C)NC(=O)OC(C)(C)C)O[C@@H]3CNC(=O)[C@H](CC(C)C)NC(=O)OC(C)(C)C,>200 µg/mL,>200 µg/mL,>200 µg/mL,>200 µg/mL,>200 µg/mL,–,144 µg/mL,>200 µg/mL
Cl.Cl.Cl.Cl.Cl.Cl.Cl.NCCCCCCSC[C@H]1O[C@@H]2O[C@H]3[C@H](O)[C@@H](O)[C@@H](O[C@H]4[C@H](O)[C@@H](O)[C@@H](O[C@H]5[C@H](O)[C@@H](O)[C@@H](O[C@H]6[C@H](O)[C@@H](O)[C@@H](O[C@H]7[C@H](O)[C@@H](O)[C@@H](O[C@H]8[C@H](O)[C@@H](O)[C@@H](O[C@H]1[C@H](O)[C@H]2O)O[C@@H]8CSCCCCCCN)O[C@@H]7CSCCCCCCN)O[C@@H]6CSCCCCCCN)O[C@@H]5CSCCCCCCN)O[C@@H]4CSCCCCCCN)O[C@@H]3CSCCCCCCN,>200 µg/mL,–,–,>200 µg/mL,>200 µg/mL,321 µg/mL,–,–
Cl.Cl.Cl.Cl.Cl.Cl.Cl.Cl.Cl.Cl.Cl.Cl.Cl.Cl.NCCCC(N)C(=O)NCC1OC2OC3C(CNC(=O)C(N)CCCN)OC(OC4C(CNC(=O)C(N)CCCN)OC(OC5C(CNC(=O)C(N)CCCN)OC(OC6C(CNC(=O)C(N)CCCN)OC(OC7C(CNC(=O)C(N)CCCN)OC(OC8C(CNC(=O)C(N)CCCN)OC(OC1C(O)C2O)C(O)C8O)C(O)C7O)C(O)C6O)C(O)C5O)C(O)C4O)C(O)C3O (stereo not shown),>200 µg/mL,>200 µg/mL,>200 µg/mL,–,>200 µg/mL,860 µg/mL,–,–
Cl.Cl.Cl.Cl.Cl.Cl.NCC1OC2OC3C(CN)OC(OC4C(CN)OC(OC5C(CN)OC(OC6C(CN)OC(OC7C(CN)OC(OC1C(O)C2O)C(O)C7O)C(O)C6O)C(O)C5O)C(O)C4O)C(O)C3O (stereo not shown),>200 µg/mL,>200 µg/mL,>200 µg/mL,–,>200 µg/mL,–,109.3 µg/mL,>200 µg/mL
Cl.Cl.Cl.Cl.Cl.Cl.Cl.NCc1ccccc1CSCC1OC2OC3C(CSCc4ccccc4CN)OC(OC4C(CSCc5ccccc5CN)OC(OC5C(CSCc6ccccc6CN)OC(OC6C(CSCc7ccccc7CN)OC(OC7C(CSCc8ccccc8CN)OC(OC8C(CSCc9ccccc9CN)OC(OC1C(O)C2O)C(O)C8O)C(O)C7O)C(O)C6O)C(O)C5O)C(O)C4O)C(O)C3O (stereo not shown),>100 µg/mL,–,–,>100 µg/mL,–,193.5 µg/mL,–,–
